Columns and labels:
[1] = in vitro; conditions: rat
Description: Brains were used from 18-day rat embryos. The extracted hippocampi were placed in modified Hanks saline solution (mHBSS, for its name in English: Hank's buffer salt solution) and washed three times to then add trypsin (0.25%). After this treatment, the hippocampi were washed with mHBSS and transferred to a MEM medium (Minimum Essential Medium) supplemented with 10% horse serum (HS), disintegrating with Pasteur pipette. The cell suspension was collected by low speed centrifugation (2000×g×20 s) at room temperature. The supernatant was saved and the pellet was broken up again with a very fine tip Pasteur pipette. Another centrifugation was performed at low speed (2000×g×20 s) at room temperature. The supernatant containing the cells in suspension was pooled with the above supernatant and the viable cells were counted using Trypan blue (0.2%). Subsequently, the neurons were seeded in culture plates in MEM supplemented with 10% HS. After the hippocampal neurons adhered to the plaque, they were exchanged for medium with a Neurobasal medium with the culture supplement B27, remaining in culture for fourteen days.
Initially, the percentage of cellular viability of said hippocampal neurons exposed to different concentrations of hydrogen peroxide was evaluated. (10, 50, 100, 200, 500 μM) during 1 h. Hydrogen peroxide (H2O2) under biological conditions, it is a highly oxidizing compound.

[2] = Neuroprotection against oxidative damage by H2O2 in hippocampal cultures (neuronal viability); type: cell-based; conditions: rat, primary hippocampal neurons from 18-day rat embryos; 50 μM H2O2 for 1 h, vehicle pre-incubation, 24 h after exposure; read-out: cell viability in the control condition (vehicle) after H2O2
Description: Brains were used from 18-day rat embryos.
The hippocampal neurons of rat obtained in point 2.1 were used to evaluate the neuroprotective effect of the nanofibers of the invention.
The neuroprotective effect of the antioxidant mixture (AOX) was evaluated, for which the neurons obtained in point 2.1 were incubated for 24 hours in a medium supplemented with the mixture of antioxidants obtained in Example 1.1. Neuronal viability was compared to control (incubated with the vehicle without antioxidants) at concentrations of 0.001, 1, 10, 100, 150 and 200 μM of AOX, before and after the exposure of crops to a concentration of 50 μM of H2O2, during 1 h of incubation.
The neuroprotective effect of the nanofibers of the invention (NF) was evaluated, for which the neurons obtained in point 2.1 were incubated for 24 hours in a medium supplemented with the nanofibers of the invention obtained in Example 1.2. The neuronal viability compared to the control (incubated with the vehicle without nanofibers) was compared with nanofibers containing concentrations of 0.001, 1, 10, 100, 150 and 200 μM of AOX, before and after the exposure of crops to a concentration of 50 μM of H2O2, during 1 hour of incubation.

OO [H2O2, Hydrogen peroxide]
viability at 1 h, 10 μM [1]: 69.5% | viability at 1 h, 50 μM [1]: 44.3% | viability at 1 h, 100 μM [1]: 29.1% | viability at 1 h, 200 μM [1]: 19.6% | viability at 1 h, 500 μM [1]: 15.8% | viability at 1 h, 50 μM [2]: < 50%

— patent US11357737B2, “Chitosan nanofibers containing bioactive compounds” (FUNDACION COPEC UNIVERSIDAD CATÓLICA, priority 2015, dated 2022)
